According to US10370391B2, “Hydrogen peroxide-activable, anti-oxidant compounds and methods using same” (Beth Israel Deaconess Medical Center, Inc., priority 2014, dated 2019):

Columns and labels:
[1] = Reaction of BRAP with H2O2 monitored by 1H NMR in D2O; assay type: physicochemical
Experimental: Since BRAP was designed to be rapidly oxidized by H2O2, generating HBA, boric acid and 2-(hydroxymethyl)-2-methylpropane-1,3-diol, the sensitivity of BRAP to H2O2 was investigated using ^1H NMR. BRAP was added to D2O containing H2O2 and the changes in the signal were monitored over time. In the presence of H2O2, BRAP was rapidly oxidized to generate HBA in a H2O2 concentration-dependent manner, confirmed by the appearance of new aromatic proton peaks at 6.8 and 7.2 ppm. In the presence of equimolar concentration of H2O2 (1 mM), a majority of boronic esters were cleaved within 30 minutes, with a half-life of hydrolysis of ˜5 minutes. Nearly all of boronic ester groups were cleaved by 5-fold excess of H2O2 (5 mM) within 5 minutes.

[2] = tested on: adult rat ventricular cardiomyocytes (ARVC); assay: MTT cytotoxicity assay, ARVC; assay type: cell-based; conditions: concentrations as high as 5 mM, 24 hours of incubation
Description: FIG. 3, comprising FIGS. 3A-3B, is a set of bar graphs illustrating biocompatibility profiles of BRAP assessed by MTT assay in mouse macrophage (RAW264.7) cells (FIG. 3A) and ARVC (FIG. 3B).

[3] = tested on: human embryonic kidney (HEK 293) cells; assay: MTT cytotoxicity assay, HEK 293; assay type: cell-based; conditions: concentrations as high as 5 mM, 24 hours of incubation
Experimental: (§1) FIG. 8, comprising FIGS. 8A-8B, is a set of bar graphs illustrating biocompatibility profiles of BRAP assessed by MTT assay in human embryonic kidney (HEK 293) cells (FIG. 8A) and mouse embryonic fibroblast (NIH 3T3) cells (FIG. 8B).
(§2) 3-(4,5-Dimethylthiazil-2yl)-2,5-diphenyltetrazolium bromide (MTT) assay was performed to evaluate the cytotoxicity of BRAP. NIH 3T3 cells were cultured at a density of 1×10^5 cells/well in a 24 well plate, and RAW 264.7 cells and HEK cells were also cultured at a density of 2×10^5 cells/well in a 24 well plate. Cells were incubated for 24 hours to reach ˜80% confluency. Cells were treated with various amount of BRAP and incubated for 24 hours. Each well was given 100 μL of MTT solution and was incubated for 4 h. 200 μL of dimethyl sulfoxide (DMSO) were added to each well to dissolve the resulting formazan crystals. After 10 min incubation, the absorbance at 570 nm was measured using a microplate reader (Biotek Instruments, Winooski, Vt.). The cell viability was determined by comparing the absorbance of BRAP treated cells that of control cells.

[4] = tested on: mouse embryonic fibroblast (NIH 3T3) cells; assay: MTT cytotoxicity assay, NIH 3T3; assay type: cell-based; conditions: concentrations as high as 5 mM, 24 hours of incubation
Experimental: as §1, §2

[5] = tested on: renal ischemia/reperfusion (I/R) injury; assay: Kidney I/R injury model in the mouse, oral BRAP; assay type: in vivo
Experimental: BRAP administered orally was tested in a kidney I/R injury model in the mouse. In this model, one of the mouse's kidney was subjected to ischemia for about 30 min, using a combination of unilateral clamping and contralateral nephrectomy. BRAP was administered orally to the mice at two time points: the night before the surgery, and immediately before the I/R surgery. The read-out markers after I/R comprised: creatinine levels 24 hours after reperfusion; tumor necrosis factor alpha (TNF-α) and monocyte chemo-attractant protein-1 (MCP-1) (both inflammatory markers); DHE staining (monitoring for ROS generation); and TUNEL staining (monitoring for apoptosis).

[6] = oral administration, 24 hours after reperfusion

For CC1(CO)COB(c2ccc(CO)cc2)OC1 [BRAP, (4-(5-(hydroxymethyl)-5-methyl-1,3,2-dioxaborinan-2-yl)phenyl)methanol], the “time in which nearly all of boronic ester groups were cleaved” value ([1]; 5-fold excess of H2O2 (5 mM)) was at most 5 min, the half-life at 1 mM ([1]; D2O containing H2O2, equimolar concentration of H2O2 (1 mM), read-out: half-life of hydrolysis) was about 5 min and the “stability of boronic ester” value ([1]; absence of H2O2, 3 days) was “remained intact”. For the same molecule, the “time in which a majority of boronic esters were cleaved” value ([1]; equimolar concentration of H2O2 (1 mM)) was at most 30 min, the “cytotoxicity (MTT)” value [2] was “no significant cytotoxicity” and the “cytotoxicity (MTT)” value [3] was “no significant cytotoxicity”. The “cytotoxicity (MTT)” value [4] was “no significant cytotoxicity”, the “renal function (creatinine levels)” value ([5]; daily oral administration 8 mg/kg, after 4 days) was “significant improvement” and the “DHE staining (ROS generation) in kidney” value ([5]; oral administration) was “significantly reduced”. The “TUNEL staining (apoptosis) in kidney” value ([5]; oral administration) was “significantly reduced”, the “activation of MCP-1 in kidney” value [5, 6] was “significantly attenuated” and the “activation of TNF-α in kidney” value [5, 6] was “significantly attenuated”.
